For orientation: IC50 means the concentration that inhibits the measured activity by half. Read a low IC50 as higher potency.

Molecules are shown by their SMILES.

The target in this experiment is MMP13 (Homo sapiens (Human), UniProt P45452). The experiment is described as follows: EnzoLyte 520 Generic MMP Assay Kit, 5-FAM/QXL 520 FRET peptide substrate. Format: biochemical. The text has this:
The EnzoLyte™ 520 Generic MMP Assay Kit (AnaSpec Inc.) can detect the activity of several MMPs including MMP-1, 2, 3, 7, 8, 9, 13, and 14. This kit uses a 5-FAM/QXL™ 520 fluorescence resonance energy transfer (FRET) peptide as an MMP substrate. In the intact FRET peptide, the fluorescence of 5-FAM is quenched by QXL™ 520. Upon cleavage into two separate fragments by MMPs, the fluorescence of 5-FAM is recovered, and can be monitored at excitation/emission wavelengths=490 nm/520 nm. The assays are performed in a convenient 96-well or 384-well microplate format.
Take `Cc1noc(-c2cc3cc(-c4cc(C(=O)NCc5ccncc5)nn4C)ccc3[nH]2)n1`: it took 4 nM to reach half-maximal inhibition (IC50).

Consider `Cc1noc(-c2cc3cc(-c4cc(C(=O)NCc5cccs5)nn4C)ccc3[nH]2)n1`, for which the IC50 was determined as 44 nM.

`Cc1noc(-c2cc3cc(-c4nc(C(=O)N5CCCCC5)[nH]c4C)ccc3[nH]2)n1` had an IC50 of 64 nM.

In the case of `Cc1noc(-c2cc3cc(-c4nc(C(=O)N5CCCC5)[nH]c4C)ccc3[nH]2)n1`, the IC50 was 113 nM.

For `Cc1[nH]c(C(=O)NCc2ccncc2)nc1-c1ccc2[nH]c(-c3nc(C4CC4)no3)cc2c1`, half-maximal inhibition (IC50) was put at 6 nM.

Molecule `Cc1[nH]c(C(=O)NCc2ccncc2)nc1-c1ccc2[nH]c(-c3nc(C(C)C)no3)cc2c1` yielded an IC50 of 18 nM.

In the case of `Cc1noc(-c2cc3cc(-c4ccnc(C(=O)NCc5ccncc5)c4)ccc3[nH]2)n1`, the IC50 stood at 12 nM.

For `Cc1nc(-c2cc3cc(-c4ccnc(C(=O)NCc5ccncc5)c4)ccc3[nH]2)no1`, the IC50 is 38 nM.

The molecule `Cn1cc(-c2cc3cc(-c4cc(C(=O)NCc5ccc(C(=O)O)cc5)nn4C)ccc3[nH]2)cn1` came in with an IC50 of 1.5 nM.

With `Cc1noc(-c2cc3cc(-c4cc(C(=O)NCc5ccc(C(=O)O)cc5)nn4C)ccc3[nH]2)n1`, the IC50 was found to be 0.2 nM.

With `Cn1nc(C(=O)NCc2ccc(C(=O)O)cc2)cc1-c1ccc2[nH]c(-c3cccnc3)cc2c1`, the midpoint of inhibition, the IC50, lay at 3 nM.

`Cn1nc(C(=O)NCc2ccc(C(=O)O)cc2)cc1-c1ccc2[nH]c(-c3ccncc3)cc2c1` displayed an IC50 of 0.8 nM.

The molecule `Cn1nc(C(=O)NCc2ccc(C(=O)O)cc2)cc1-c1ccc2[nH]c(-c3ncccn3)cc2c1` registered an IC50 of 1.6 nM.

Turning to `Cn1nc(C(=O)NCc2ccc(C(=O)O)cc2)cc1-c1ccc2[nH]c(-c3cncnc3)cc2c1`, the IC50 was 5 nM.

With `Cc1cc(Cn2cc(-c3nc(C(=O)NCc4ccc(C(=O)O)cc4)[nH]c3C)cn2)ccc1F`, inhibition was half-maximal at 88 nM (IC50).

In turn, `Cc1cc(Cn2cc(-c3ccnc(C(=O)NCc4ccc(C(=O)O)cc4)c3)cn2)ccc1F` returned an IC50 of 130 nM.

`Cc1noc(-c2cc3cc(-c4ccnc(C(=O)NCc5ccc(C(=O)O)cc5)c4)ccc3[nH]2)n1` had an IC50 of 0.2 nM.

`CCOC(=O)c1cc2cc(-c3ccnc(C(=O)NCc4ccc(C(=O)O)cc4)c3)ccc2[nH]1` came in with an IC50 of 0.7 nM.

The molecule `Cc1cc(-c2cc3cc(-c4cc(C(=O)NCc5ccc(C(=O)O)cc5)nn4C)ccc3[nH]2)cc(F)n1` gave an IC50 of 53 nM.

In turn, `Cn1nc(C(=O)NCc2ccc(C(=O)O)cc2)cc1-c1ccc2[nH]c(-c3ccnc(F)c3)cc2c1` gave an IC50 of 2 nM.

Consider `Cc1cc(-c2cc3cc(-c4cc(C(=O)NCc5ccc(C(=O)O)cc5)nn4C)ccc3[nH]2)ccc1F`, for which the IC50 worked out at 30 nM.

`Cn1nc(C(=O)NCc2ccc(C(=O)O)cc2)cc1-c1ccc2[nH]c(C3=NCCO3)cc2c1`: inhibition was half-maximal at 43 nM (IC50).

`Cn1nc(C(=O)NCc2ccc(C(=O)O)cc2)cc1-c1ccc2[nH]c(-c3ccc(F)nc3)cc2c1` had an IC50 of 48 nM.

The molecule `Cn1nc(C(=O)NCc2ccc(C(=O)O)cc2)cc1-c1ccc2[nH]c(C#N)cc2c1` returned an IC50 of 52 nM.

`Cc1noc(-c2cc3cc(-c4cc(C(=O)NCc5ccc(C(=O)O)cc5)ncc4C)ccc3[nH]2)n1` came in with a half-inhibitory concentration (IC50) of 0.2 nM.

The molecule `Cc1noc(-c2cc3cc(-c4nc(C(=O)NCc5ccc(C(=O)O)cc5)[nH]c4C)ccc3[nH]2)n1` showed an IC50 of 0.2 nM.

On to `Cc1noc(-c2cc3cc(-c4nc(C(=O)NCc5ccc(=O)[nH]c5)[nH]c4C)ccc3[nH]2)n1`, for which the IC50 is 0.2 nM.

`Cc1noc(-c2cc3cc(-c4nc(C(=O)NCc5noc(C)n5)[nH]c4C)ccc3[nH]2)n1` came in with an IC50 of 0.9 nM.

Consider `Cc1noc(-c2cc3cc(-c4nc(C(=O)NC5CCOCC5)[nH]c4C)ccc3[nH]2)n1`, for which the IC50 was found to be 106 nM.

The molecule `Cc1noc(-c2cc3cc(-c4nc(C(=O)NCc5ccnnc5)[nH]c4C)ccc3[nH]2)n1` returned an IC50 of 1.2 nM.

The molecule `Cc1noc(-c2cc3cc(-c4nc(C(=O)NCc5nnc[nH]5)[nH]c4C)ccc3[nH]2)n1` showed an IC50 of 6 nM.

As for `Cc1noc(-c2cc3cc(-c4nc(C(=O)NCc5ccccn5)[nH]c4C)ccc3[nH]2)n1`, it took 3 nM to reach half-maximal inhibition (IC50).

For `Cc1noc(-c2cc3cc(-c4nc(C(=O)NCC5CCCCO5)[nH]c4C)ccc3[nH]2)n1` (centres unmarked), half-maximal inhibition (IC50) was put at 5 nM.

The molecule `Cc1noc(-c2cc3cc(-c4cc(C(=O)NCc5ccncc5)ncc4C)ccc3[nH]2)n1` displayed an IC50 of 14 nM.

Take `Cc1noc(-c2cc3cc(-c4nc(C(=O)NCc5ccc(C(O)C(F)(F)F)cc5)[nH]c4C)ccc3[nH]2)n1` (centres unmarked): the IC50 was 18 nM.

Molecule `Cc1noc(-c2cc3cc(-c4nc(C(=O)NCCN5CCOCC5)[nH]c4C)ccc3[nH]2)n1` showed an IC50 of 5 nM.

In turn, `Cc1noc(-c2cc3cc(-c4nc(C(=O)NCc5cccnc5)[nH]c4C)ccc3[nH]2)n1` had an IC50 of 0.6 nM.

`Cc1noc(-c2cc3cc(-c4nc(C(=O)NCc5ccncn5)[nH]c4C)ccc3[nH]2)n1`: 0.6 nM corresponded to half-maximal inhibition (IC50).

As for `Cc1noc(-c2cc3cc(-c4nc(C(=O)NCc5nnc(C)[nH]5)[nH]c4C)ccc3[nH]2)n1`, the IC50 worked out at 17 nM.

On to `Cc1noc(-c2cc3cc(-c4nc(C(=O)NC(C)c5cccs5)[nH]c4C)ccc3[nH]2)n1` (centres unmarked), for which the IC50 stood at 15 nM.

On to `Cc1noc(-c2cc3cc(-c4nc(C(=O)NCc5cccs5)[nH]c4C)ccc3[nH]2)n1`, for which the 50% inhibitory concentration (IC50) amounted to 2 nM.

As to `Cc1noc(-c2cc3nc(-c4nc(C(=O)NCc5ccncc5)[nH]c4C)ccc3[nH]2)n1`, the IC50 was 20 nM.

For the molecule `Cc1noc(-c2cc3cc(-c4nc(C(=O)NCC5COCCO5)[nH]c4C)ccc3[nH]2)n1` (centres unmarked), the IC50 was determined as 1.9 nM.

`Cc1noc(-c2cc3cc(-c4cc(C(=O)NCc5ccco5)nn4C)ccc3[nH]2)n1` had an IC50 of 27 nM.

The molecule `Cc1noc(-c2cc3cc(-c4cc(C(=O)NCc5ccoc5)nn4C)ccc3[nH]2)n1` registered an IC50 of 45 nM.

In the case of `Cc1noc(-c2cc3cc(-c4nc(C(=O)NCc5ccoc5)[nH]c4C)ccc3[nH]2)n1`, the midpoint of inhibition, the IC50, lay at 3 nM.

`Cc1noc(-c2cc3cc(-c4cc(C(=O)NCc5ccc(C#N)cc5)nn4C)ccc3[nH]2)n1` showed an IC50 of 10 nM.

Turning to `Cc1noc(-c2cc3cc(-c4nc(C(=O)NCc5ccc(C#N)cc5)[nH]c4C)ccc3[nH]2)n1`, the IC50 is 2 nM.

In turn, `Cc1noc(-c2cc3cc(-c4cc(C(=O)NCc5ccc(F)cc5)nn4C)ccc3[nH]2)n1` came in with an IC50 of 26 nM.

As to `Cc1noc(-c2cc3cc(-c4nc(C(=O)NCc5ccc(F)cc5)[nH]c4C)ccc3[nH]2)n1`, 6 nM corresponded to half-maximal inhibition (IC50).

With `Cc1noc(-c2cc3cc(-c4nc(C(=O)NCc5nnc6n5CCC6)[nH]c4C)ccc3[nH]2)n1`, the IC50 stood at 4 nM.

For the molecule `Cc1noc(-c2cc3cc(-c4nc(C(=O)NCc5ccnc(N)c5)[nH]c4C)ccc3[nH]2)n1`, the IC50 came to 1.3 nM.

For the molecule `Cc1noc(-c2cc3cc(-c4nc(C(=O)NCC5(O)CCOCC5)[nH]c4C)ccc3[nH]2)n1`, half-maximal inhibition (IC50) required 6 nM.

In turn, `Cc1noc(-c2cc3cc(-c4nc(C(=O)NCc5ccc(N)nc5)[nH]c4C)ccc3[nH]2)n1` displayed an IC50 of 2 nM.

`CCNC(=O)c1nc(-c2ccc3[nH]c(-c4nc(C)no4)cc3c2)c(C)[nH]1` returned an IC50 of 10 nM.

Take `CCOC(=O)c1cc2cc(-c3cc(C(=O)NCc4ccc(CC(=O)O)cc4)nn3C)ccc2[nH]1`: the midpoint of inhibition, the IC50, lay at 3 nM.

`CCOC(=O)c1[nH]c2ccc(-c3nc(C(=O)NCc4ccncc4)[nH]c3C)cc2c1F` gave an IC50 of 7 nM.

Turning to `CCOC(=O)c1cc2cc(-c3cc(C(=O)NCc4ccc(=O)[nH]c4)nn3C)ccc2[nH]1`, the IC50 stood at 125 nM.

Regarding `CCOC(=O)c1cc2cc(-c3cc(C(=O)NCc4ccncc4)nn3C)ccc2[nH]1`, half-maximal inhibition (IC50) was put at 97 nM.

The molecule `CCOC(=O)c1cc2cc(-c3ccnc(C(=O)NCc4ccc(=O)[nH]c4)c3)ccc2[nH]1` displayed an IC50 of 35 nM.

Take `CCOC(=O)c1cc2cc(-c3cc(C(=O)NCc4ccc(CC(=O)OC)cc4)nn3C)ccc2[nH]1`: the IC50 turned out to be 51 nM.

Molecule `CCOC(=O)c1cc2cc(-c3nc(C(=O)NCc4ccncc4)[nH]c3C)ccc2[nH]1` registered an IC50 of 2 nM.

`CCOC(=O)c1cc2cc(-c3nc(C(=O)NCc4ccncc4)[nH]c3C)cnc2[nH]1` registered a concentration for half-maximal inhibition (IC50) of 49 nM.

`CCOC(=O)c1cc2cc(-c3nc(C(=O)NCc4ccncc4)[nH]c3C)ncc2[nH]1` had an IC50 of 7 nM.

Regarding `CCOC(=O)c1cc2nc(-c3nc(C(=O)NCc4ccncc4)[nH]c3C)ccc2[nH]1`, it took 95 nM to reach half-maximal inhibition (IC50).

`CCOC(=O)c1cc2cc(-c3cc(C(=O)NCc4ccncc4)ncc3C)ccc2[nH]1` yielded an IC50 of 155 nM.

`COC(=O)c1cc(-c2ccc3[nH]c(-c4nc(C)no4)cc3c2)n(C)n1` returned an IC50 of 190 nM.

As to `Cc1noc(-c2cc3cc(-c4cc(C(=O)NCc5nccs5)nn4C)ccc3[nH]2)n1` [1-methyl-5-[2-(3-methyl-1,2,4-oxadiazol-5-yl)-1H-indol-5-yl]-N-(1,3-thiazol-2-ylmethyl)-1H-pyrazole-3-carboxamide], the IC50 turned out to be 73 nM.

The molecule `Cc1noc(-c2cc3cc(-c4cc(C(=O)NCc5cscn5)nn4C)ccc3[nH]2)n1` [1-methyl-5-[2-(3-methyl-1,2,4-oxadiazol-5-yl)-1H-indol-5-yl]-N-(1,3-thiazol-4-ylmethyl)-1H-pyrazole-3-carboxamide] yielded an IC50 of 94 nM.

`Cc1noc(-c2cc3cc(-c4cc(C(=O)NCc5cncs5)nn4C)ccc3[nH]2)n1` [1-methyl-5-[2-(3-methyl-1,2,4-oxadiazol-5-yl)-1H-indol-5-yl]-N-(1,3-thiazol-5-ylmethyl)-1H-pyrazole-3-carboxamide] came in with an IC50 of 10 nM.

`Cc1noc(-c2cc3cc(-c4cc(C(=O)NCC5CCOCC5)nn4C)ccc3[nH]2)n1` [1-methyl-5-[2-(3-methyl-1,2,4-oxadiazol-5-yl)-1H-indol-5-yl]-N-(tetrahydro-2H-pyran-4-ylmethyl)-1H-pyrazole-3-carboxamide] registered an IC50 of 116 nM.

For the origin of these results see patent US8785489B2, “Heteroaryl substituted indole compounds useful as MMP-13 inhibitors” (Boehringer Ingelheim International GmbH, priority 2008, dated 2014).
